In ChEMBL document CHEMBL1144985, “Rational design, synthesis and structure-activity relationships of a cyclic succinate series of TNF-alpha converting enzyme inhibitors. Part 2: lead optimization” (Bioorg Med Chem Lett, 2003):
In brackets after ≈: the same amount, converted by molar mass.

What was measured:
[1] = molecular target: Matrix metalloproteinase-9 (Homo sapiens, UniProt P14780); assay: Inhibitory activity against matrix metalloprotease-9 (MMP-9)
[2] = species on record: Homo sapiens; assay: In vitro inhibition of TNF-alpha production was determined by using LPS-stimulated human whole blood assay (WBA); type: functional
[3] = molecular target: T1, Interstitial collagenase (Homo sapiens, UniProt P03956); assay: Inhibitory activity against matrix metalloprotease-1 (MMP-1)
T1 sequence (P03956 whole entry): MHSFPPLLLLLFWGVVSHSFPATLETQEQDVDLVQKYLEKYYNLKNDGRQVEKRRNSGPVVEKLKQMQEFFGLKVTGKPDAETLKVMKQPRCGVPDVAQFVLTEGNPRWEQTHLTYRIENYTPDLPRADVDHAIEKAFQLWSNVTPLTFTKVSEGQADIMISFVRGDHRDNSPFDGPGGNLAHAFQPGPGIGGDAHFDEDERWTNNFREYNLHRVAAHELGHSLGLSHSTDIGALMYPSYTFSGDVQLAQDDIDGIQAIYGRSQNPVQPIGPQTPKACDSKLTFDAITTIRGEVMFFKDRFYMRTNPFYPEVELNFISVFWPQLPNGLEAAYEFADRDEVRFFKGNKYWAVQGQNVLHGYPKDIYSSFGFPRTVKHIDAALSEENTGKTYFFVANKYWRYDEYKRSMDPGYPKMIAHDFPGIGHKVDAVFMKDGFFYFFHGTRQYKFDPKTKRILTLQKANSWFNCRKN

[4] = Solubility was determined
[5] = molecular target: 72 kDa type IV collagenase (Homo sapiens, UniProt P08253); assay: Inhibitory activity against matrix metalloprotease-2 (MMP-2)
Sequence of 72 kDa type IV collagenase (P08253 whole entry, the tested form may be a part): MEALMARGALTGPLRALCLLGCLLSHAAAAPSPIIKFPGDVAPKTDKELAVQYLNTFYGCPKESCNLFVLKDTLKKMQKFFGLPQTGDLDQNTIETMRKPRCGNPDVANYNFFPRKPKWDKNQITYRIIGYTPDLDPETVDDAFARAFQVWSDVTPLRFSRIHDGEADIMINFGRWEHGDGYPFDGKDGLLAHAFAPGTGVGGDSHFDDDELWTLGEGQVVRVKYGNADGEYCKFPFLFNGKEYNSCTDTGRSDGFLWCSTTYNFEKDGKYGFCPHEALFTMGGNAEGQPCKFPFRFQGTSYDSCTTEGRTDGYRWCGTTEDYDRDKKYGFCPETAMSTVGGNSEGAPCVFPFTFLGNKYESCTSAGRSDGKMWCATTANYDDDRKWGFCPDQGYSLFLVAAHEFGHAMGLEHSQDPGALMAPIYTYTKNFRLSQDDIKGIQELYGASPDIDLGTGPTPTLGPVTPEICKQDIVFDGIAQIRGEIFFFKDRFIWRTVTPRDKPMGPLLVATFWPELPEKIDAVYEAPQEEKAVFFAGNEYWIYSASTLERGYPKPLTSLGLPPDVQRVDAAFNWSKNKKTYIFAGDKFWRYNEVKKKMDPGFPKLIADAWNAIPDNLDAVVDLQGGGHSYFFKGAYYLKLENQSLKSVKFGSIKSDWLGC

[6] = molecular target: Disintegrin and metalloproteinase domain-containing protein 17 (Sus scrofa, UniProt O77636); assay: In vitro binding affinity against porcine TACE
Sequence of Disintegrin and metalloproteinase domain-containing protein 17 (O77636 whole entry, the tested form may be a part): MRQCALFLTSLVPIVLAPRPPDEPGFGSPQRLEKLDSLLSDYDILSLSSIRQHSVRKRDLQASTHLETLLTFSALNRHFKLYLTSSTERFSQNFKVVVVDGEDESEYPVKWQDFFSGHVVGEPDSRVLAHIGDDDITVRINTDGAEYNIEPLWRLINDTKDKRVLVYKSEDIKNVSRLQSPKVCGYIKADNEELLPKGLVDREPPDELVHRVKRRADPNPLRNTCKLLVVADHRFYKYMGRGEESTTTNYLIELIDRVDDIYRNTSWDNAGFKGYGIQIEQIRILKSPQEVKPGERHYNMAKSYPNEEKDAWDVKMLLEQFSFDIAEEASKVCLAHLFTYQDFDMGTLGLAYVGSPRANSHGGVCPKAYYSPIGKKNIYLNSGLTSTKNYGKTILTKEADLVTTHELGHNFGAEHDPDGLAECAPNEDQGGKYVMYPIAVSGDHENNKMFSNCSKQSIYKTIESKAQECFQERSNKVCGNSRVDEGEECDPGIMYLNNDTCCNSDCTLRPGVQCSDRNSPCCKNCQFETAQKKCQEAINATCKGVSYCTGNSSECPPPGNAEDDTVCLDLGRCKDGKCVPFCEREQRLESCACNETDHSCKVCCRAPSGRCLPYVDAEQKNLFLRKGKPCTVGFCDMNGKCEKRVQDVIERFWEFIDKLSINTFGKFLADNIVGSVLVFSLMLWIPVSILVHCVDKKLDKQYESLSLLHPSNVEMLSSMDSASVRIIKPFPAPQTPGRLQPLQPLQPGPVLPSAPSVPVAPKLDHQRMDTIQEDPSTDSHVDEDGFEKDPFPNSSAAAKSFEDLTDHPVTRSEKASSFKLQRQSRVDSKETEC

[7] = system: Caco-2; conditions: Homo sapiens
Description: Caco-2 permeability was determined

Sequence of Matrix metalloproteinase-9 (P14780 whole entry): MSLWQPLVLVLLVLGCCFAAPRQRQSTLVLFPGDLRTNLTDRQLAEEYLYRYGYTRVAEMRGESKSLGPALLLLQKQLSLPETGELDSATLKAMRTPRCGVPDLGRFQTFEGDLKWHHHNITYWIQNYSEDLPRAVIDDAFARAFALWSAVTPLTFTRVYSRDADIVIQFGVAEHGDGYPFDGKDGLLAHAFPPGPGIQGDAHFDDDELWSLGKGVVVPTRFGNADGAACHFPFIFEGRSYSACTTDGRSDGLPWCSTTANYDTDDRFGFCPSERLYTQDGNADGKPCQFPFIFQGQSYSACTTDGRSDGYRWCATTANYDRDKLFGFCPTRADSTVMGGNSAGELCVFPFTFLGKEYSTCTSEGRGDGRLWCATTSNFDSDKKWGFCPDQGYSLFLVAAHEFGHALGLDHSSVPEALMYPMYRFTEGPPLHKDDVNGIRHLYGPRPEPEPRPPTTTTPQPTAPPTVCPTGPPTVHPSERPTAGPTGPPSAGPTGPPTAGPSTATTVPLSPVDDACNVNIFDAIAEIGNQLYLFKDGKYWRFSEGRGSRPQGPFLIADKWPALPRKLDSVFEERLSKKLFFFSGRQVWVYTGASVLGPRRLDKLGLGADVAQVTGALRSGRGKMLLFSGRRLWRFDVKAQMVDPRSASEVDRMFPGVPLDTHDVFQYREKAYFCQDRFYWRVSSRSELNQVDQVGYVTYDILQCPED

| SMILES | Ki [1] [nM] | IC50 [2] [nM] | Ki [3] [nM] | solubility [4] [µg/mL] | Ki [5] [nM] | IC50 [6] [nM] | Papp [7] |
| --- | --- | --- | --- | --- | --- | --- | --- |
| Cc1cc(COc2ccc(NC(=O)[C@H]3CCN(C(C)C)C[C@@H]3C(=O)NO)cc2)c2ccccc2n1 | > 2130 | 1200 | > 4950 | > 10000 | > 3330 | 1.2 | – |
| CC(=O)N1CC[C@H](C(=O)Nc2ccc(COc3ccnc4cc(C(F)(F)F)ccc34)cc2)[C@@H](C(=O)NO)C1 | > 2130 | 2600 | > 4950 | – | > 3330 | 3.2 | – |
| Cc1cc(COc2ccc(NC(=O)[C@H]3CN(C(=O)c4ccco4)CC[C@@H]3C(=O)NO)cc2)c2ccccc2n1 | > 2130 | 1300 | > 4950 | < 100 | > 3330 | < 0.3 | 0.2 10e-6 cm s-1 |
| O=C(NO)[C@H]1CCCC[C@@H]1C(=O)Nc1ccc(COc2ccnc3ccccc23)cc1 | > 2130 | > 50000 | > 4950 | – | > 3330 | – | – |
| Cc1cc(COc2ccc(NC(=O)[C@@H]3[C@@H](C(=O)NO)CCCN3Cc3nccs3)cc2)c2ccccc2n1 | > 2130 | 1400 | > 4950 | – | > 3330 | 1 | – |
| O=C(NO)[C@H]1CN(C(=O)C2CC2)CC[C@@H]1C(=O)Nc1ccc(COc2ccnc3ccccc23)cc1 | > 2130 | 710 | > 4950 | – | > 3330 | 2 | – |
| CCN1CCC[C@H](C(=O)NO)[C@H]1C(=O)Nc1ccc(OCc2cc(C)nc3ccccc23)cc1 | > 2130 | 100 | > 4950 | > 10000 | > 3330 | 8 | – |
| Cc1cc(COc2ccc(NC(=O)[C@H]3CCN(C(=O)C4CC4)C[C@@H]3C(=O)NO)cc2)c2ccccc2n1 | > 1660 | 390 | > 4950 | 50 (≈ 99.5 µM) | > 2450 | 0.45 | 0.2 10e-6 cm s-1 |
| Cc1cc(COc2ccc(NC(=O)[C@H]3CCN(C(=O)OCc4nccs4)C[C@@H]3C(=O)NO)cc2)c2ccccc2n1 | 768 | 450 | > 4950 | – | 1540 | < 0.3 | – |
| CCCC(=O)N1CC[C@H](C(=O)Nc2ccc(OCc3cc(C)nc4ccccc34)cc2)[C@@H](C(=O)NO)C1 | > 2130 | 330 | > 4950 | – | > 3330 | 0.26 | – |
| Cc1cc(COc2ccc(NC(=O)[C@H]3CNCC[C@@H]3C(=O)NO)cc2)c2ccccc2n1 | > 2130 | 530 | > 4950 | > 10000 | > 3330 | 3 | – |
| Cc1cc(COc2ccc(NC(=O)[C@H]3NCCC[C@@H]3C(=O)NO)cc2)c2ccccc2n1 | > 2130 | 120 | > 4950 | – | > 3330 | 1 | – |
| Cc1cc(COc2ccc(NC(=O)[C@H]3CCNC[C@@H]3C(=O)NO)cc2)c2ccccc2n1 | > 2130 | 4300 | > 4950 | > 10000 | > 3330 | 1.5 | – |
| O=C(NO)[C@H]1CN(C(=O)C2CC2)CC[C@@H]1C(=O)Nc1ccc(Oc2ccnc3ccccc23)cc1 | > 2130 | > 50000 | > 4950 | – | > 3330 | > 1000 | – |
| Cc1cc(COc2ccc(NC(=O)[C@H]3CCN(C(=O)OC(C)C)C[C@@H]3C(=O)NO)cc2)c2ccccc2n1 | 252 | 210 | > 4950 | – | 771 | 0.44 | – |
| CC(=O)N1CC[C@H](C(=O)Nc2ccc(COc3ccnc4ccccc34)cc2)[C@@H](C(=O)NO)C1 | > 2130 | 560 | > 4950 | – | > 3330 | 1 | – |
| COC(=O)N1CC[C@H](C(=O)Nc2ccc(OCc3cc(C)nc4ccccc34)cc2)[C@@H](C(=O)NO)C1 | 767 | 570 | > 4950 | – | 1110 | 0.28 | – |

| SMILES | Ki [1] [nM] | IC50 [2] [nM] | Ki [3] [nM] | solubility [4] [µg/mL] | Ki [5] [nM] | IC50 [6] [nM] | Papp [7] |
| --- | --- | --- | --- | --- | --- | --- | --- |
| Cc1cc(COc2ccc(NC(=O)[C@H]3CCN(S(=O)(=O)c4cn(C)cn4)C[C@@H]3C(=O)NO)cc2)c2ccccc2n1 | 366 | 1500 | > 4950 | – | 1000 | 0.31 | – |
| Cc1cc(COc2ccc(NC(=O)[C@@H]3[C@@H](C(=O)NO)CCCN3CC3CC3)cc2)c2ccccc2n1 | > 2130 | 400 | > 4950 | – | > 3330 | 1 | – |
| Cc1cc(COc2ccc(NC(=O)[C@H]3CCN(C4CCC4)C[C@@H]3C(=O)NO)cc2)c2ccccc2n1 | > 2130 | 1100 | > 4950 | > 10000 | > 3330 | 1.6 | – |
| Cc1cc(COc2ccc(NC(=O)[C@H]3CN(Cc4nccs4)CC[C@@H]3C(=O)NO)cc2)c2ccccc2n1 | > 2130 | 560 | > 4950 | – | > 3330 | 0.8 | – |
| Cc1cc(COc2ccc(NC(=O)[C@H]3CCN(C(=O)NC(C)(C)C)C[C@@H]3C(=O)NO)cc2)c2ccccc2n1 | > 2130 | 560 | > 4950 | – | > 3330 | 0.41 | – |
| Cc1cc(COc2ccc(NC(=O)[C@H]3CCN(C(=O)c4ccco4)C[C@@H]3C(=O)NO)cc2)c2ccccc2n1 | > 465 | 170 | > 4950 | 10 (≈ 18.9 µM) | > 1010 | 0.066 | 0.1 10e-6 cm s-1 |
| Cc1cc(COc2ccc(NC(=O)[C@H]3CCN(C(=O)C(C)C)C[C@@H]3C(=O)NO)cc2)c2ccccc2n1 | > 2130 | 270 | > 4950 | 30 (≈ 59.5 µM) | > 3330 | 0.22 | 0.3 10e-6 cm s-1 |
| O=C(NO)[C@H]1CN(C(=O)C2CC2)CC[C@@H]1C(=O)Nc1ccc(OCc2ccnc3ccccc23)cc1 | > 2130 | 1300 | > 4950 | – | > 3330 | 1 | – |
| Cc1cc(COc2ccc(NC(=O)[C@H]3CCN(S(C)(=O)=O)C[C@@H]3C(=O)NO)cc2)c2ccccc2n1 | 306 | 1360 | > 4950 | – | 656 | 0.48 | – |
| Cc1cc(OCc2ccc(NC(=O)[C@H]3CCN(C(=O)c4ccco4)C[C@@H]3C(=O)NO)cc2)c2ccccc2n1 | > 2130 | 3400 | > 4950 | – | > 3330 | 3 | – |
| Cc1cc(COc2ccc(NC(=O)[C@H]3CN(CC4CC4)CC[C@@H]3C(=O)NO)cc2)c2ccccc2n1 | > 2130 | 300 | > 4950 | > 10000 | > 3330 | 1 | – |
| Cc1cc(COc2ccc(NC(=O)[C@H]3CCN(C(=O)OC4CC4)C[C@@H]3C(=O)NO)cc2)c2ccccc2n1 | 209 | 700 | > 4950 | – | 642 | 0.83 | – |
| O=C(NO)[C@H]1CN(C(=O)c2ccco2)CC[C@@H]1C(=O)Nc1ccc(COc2ccnc3ccccc23)cc1 | > 2130 | 700 | > 4950 | – | > 3330 | 0.8 | – |
| Cc1cc(COc2ccc(NC(=O)[C@@H]3[C@@H](C(=O)NO)CCCN3C)cc2)c2ccccc2n1 | > 2130 | 20 | > 4950 | – | > 3330 | 6.2 | – |
| Cc1cc(COc2ccc(NC(=O)[C@H]3CCN(C(=O)OCc4cscn4)C[C@@H]3C(=O)NO)cc2)c2ccccc2n1 | 296 | 530 | > 4950 | – | 476 | < 0.3 | – |
| Cc1cc(COc2ccc(NC(=O)[C@H]3CN(C)CC[C@@H]3C(=O)NO)cc2)c2ccccc2n1 | > 2130 | 100 | > 4950 | – | > 3330 | 5 | – |
